Measured values from patent US20250282834A1, “PEPTIDE INHIBITORS FOR CHROMODOMAIN HELICASE DNA BINDING PROTEIN 4 (CHD4)” (THE REGENTS OF THE UNIVERSITY OF CALIFORNIA, priority 2022, published 2025).
Non-standard residues stand in square brackets, D forms with d. Residues, ends and D or L forms follow the SMILES beside them. No end group written: not given here. *: point of attachment. Orn = NCCC[C@H](N)C(=O)O; Cbz = O=C(OCc1ccccc1)*; βAla = NCCC(=O)O; CH2F = FC*

Experiments:
full-length Flag-CHD4 = target: T1, full-length Flag-CHD4 (Homo sapiens, UniProt Q14839); assay: Biolayer interferometry (BLI) binding kinetics of peptides to CHD4; conditions: N-biotinylated peptides immobilized, sequentially diluted full-length Flag-CHD4
T1 construct: made in house; host or cells: Sf9 (recombinant baculovirus)
T1 sequence (Q14839 whole entry): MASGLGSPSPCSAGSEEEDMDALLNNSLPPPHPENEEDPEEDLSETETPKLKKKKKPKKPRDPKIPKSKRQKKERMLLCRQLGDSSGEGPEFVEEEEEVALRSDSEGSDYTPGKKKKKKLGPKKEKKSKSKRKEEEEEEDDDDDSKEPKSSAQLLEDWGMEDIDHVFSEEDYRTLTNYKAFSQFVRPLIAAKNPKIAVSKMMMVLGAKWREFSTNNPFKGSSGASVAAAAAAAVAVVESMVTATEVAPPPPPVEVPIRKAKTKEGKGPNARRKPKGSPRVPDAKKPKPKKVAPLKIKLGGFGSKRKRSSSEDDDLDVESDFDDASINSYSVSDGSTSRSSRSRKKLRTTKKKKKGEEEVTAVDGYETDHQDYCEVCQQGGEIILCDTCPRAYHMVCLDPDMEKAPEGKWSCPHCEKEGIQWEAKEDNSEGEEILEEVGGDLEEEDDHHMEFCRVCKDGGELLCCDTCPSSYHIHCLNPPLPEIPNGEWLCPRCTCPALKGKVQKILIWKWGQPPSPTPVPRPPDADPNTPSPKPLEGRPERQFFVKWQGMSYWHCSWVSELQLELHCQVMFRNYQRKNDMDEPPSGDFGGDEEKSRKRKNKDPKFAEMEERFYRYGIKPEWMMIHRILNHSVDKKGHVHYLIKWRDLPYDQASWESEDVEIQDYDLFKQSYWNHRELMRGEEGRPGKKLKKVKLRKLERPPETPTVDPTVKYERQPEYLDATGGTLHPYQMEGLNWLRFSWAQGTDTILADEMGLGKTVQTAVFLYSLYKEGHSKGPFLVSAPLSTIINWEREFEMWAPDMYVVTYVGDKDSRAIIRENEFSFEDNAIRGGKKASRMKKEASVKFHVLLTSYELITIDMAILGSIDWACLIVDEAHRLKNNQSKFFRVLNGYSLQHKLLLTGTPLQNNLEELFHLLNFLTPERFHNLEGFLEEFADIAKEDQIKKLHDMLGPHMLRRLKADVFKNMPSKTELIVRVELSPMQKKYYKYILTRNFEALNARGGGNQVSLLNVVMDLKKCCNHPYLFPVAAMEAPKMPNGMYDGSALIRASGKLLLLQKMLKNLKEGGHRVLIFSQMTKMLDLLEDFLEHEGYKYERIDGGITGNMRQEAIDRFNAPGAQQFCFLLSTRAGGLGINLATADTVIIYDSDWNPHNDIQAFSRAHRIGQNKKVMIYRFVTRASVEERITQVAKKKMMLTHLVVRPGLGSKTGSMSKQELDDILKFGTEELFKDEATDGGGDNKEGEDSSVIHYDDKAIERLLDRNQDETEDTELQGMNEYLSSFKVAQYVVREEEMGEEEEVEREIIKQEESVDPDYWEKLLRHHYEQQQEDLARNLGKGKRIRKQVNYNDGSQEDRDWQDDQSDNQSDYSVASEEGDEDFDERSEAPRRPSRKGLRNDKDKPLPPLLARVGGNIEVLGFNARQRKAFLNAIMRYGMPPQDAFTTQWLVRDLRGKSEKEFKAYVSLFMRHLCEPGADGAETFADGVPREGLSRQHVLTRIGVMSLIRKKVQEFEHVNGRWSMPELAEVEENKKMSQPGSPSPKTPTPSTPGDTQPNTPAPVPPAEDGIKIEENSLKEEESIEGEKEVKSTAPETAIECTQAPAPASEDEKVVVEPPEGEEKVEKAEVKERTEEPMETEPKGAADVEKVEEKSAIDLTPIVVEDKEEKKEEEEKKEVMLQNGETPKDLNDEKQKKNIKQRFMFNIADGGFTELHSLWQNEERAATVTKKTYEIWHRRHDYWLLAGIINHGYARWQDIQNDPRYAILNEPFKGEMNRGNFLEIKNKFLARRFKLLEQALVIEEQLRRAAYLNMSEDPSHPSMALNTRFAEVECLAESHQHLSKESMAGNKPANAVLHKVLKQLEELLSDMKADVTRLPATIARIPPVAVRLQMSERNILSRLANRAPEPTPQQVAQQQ
Procedure: We next examined peptide binding sites on the CHD4 domain and measured affinity to further confirm the interaction. Multiple CHD4 deletion proteins were expressed and purified from recombinant baculovirus-infected Sf9 cells with Flag-agarose beads (FIG. 7a). An equal molecular amount of recombinant proteins was coated on an ELISA plate and increasing concentrations of biotinylated peptides were incubated. […] Binding affinity to the fill-length CHD4 was also calculated with Bio-Layer Interferometry (BLI). […] The N-biotinylated VGN73 or control peptides were first immobilized on a streptavidin-coated chip, and sequentially diluted full-length Flag-CHD4 proteins were applied. The interaction was then detected with interferometry.
To evaluate of binding kinetics of VGN73 and mutant peptide to CHD4, assays were carried out by biolayer interferometry (BLI) on Octet-Red 384 (ForteBio, CA, USA) at 30° C. with shaking at 1,000 RPM. Streptavidin (SA) tips (Sartorius, Goettingen, Germany) were dipped in 200 μL of biotinylated peptide (VGN73, mutant or TAT) solution (1 μM in 1× kinetic buffer) for the loading step. […] Binding kinetics was evaluated using a 1:1 binding model by ForteBio Data Analysis 8.1 software to obtain the dissociation constant KD.

[1] = tested on: primary effusion lymphoma (PEL) cells (BC3, BCBL-1); assay type: cell-based
Procedure: FIG. 4 VGN73 inhibits cell growth on various cancer cell types and induces apoptosis and autophagy in BC3 cells. FIG. 4a. MT assays were performed with the indicated cell lines treated with various VGN73 and mutant peptide concentrations for 24 hours. The OD of mock-treated samples were set as 100%, and OD from detergent-treated cells were set as 0%. Mean percentage viability±SD was calculated for each treatment (n=3 samples/treatment). FIG. 4b. VGN73 induces apoptosis. BC3 cells were incubated with of VGN73 (18 μM) for 0, 1, 4, and 24 hours, followed by measurements of percentage apoptosis induction (Annexin V staining) by flow cytometry. Median percentage apoptosis was calculated for each treatment time (n=3 samples/treatment time) (a). […] Cleaved caspase 3 were calculated by normalizing to untreated sample, and untreated sample set as 100% (b). […] Median percentage apoptosis was calculated for each treatment time (n=3 samples/treatment) (a). […] ratios were calculated by normalizing to untreated sample, and untreated sample set as 100% (b). […] Cell viability were determined by MTT assay (n=5 samples/treatment). *; p<0.05. **; p<0.01 versus the control group, #; p<0.05 versus the Z-VAD-FMK group.
The cytotoxic activity of VGN73 and mutant peptide were measured using the MTT assay. […] The optical densities (ODs) were measured at 570 nm with a Benchmark Plus Microplate Spectrophotometer (Bio-Rad). […]

CHD4 = target: T2, CHD4 (Homo sapiens, UniProt Q14839); assay: CHD4 and LANA protein expression by IFA and western blotting in PEL cells; assay type: cell-based; conditions: for recovery of full-length CHD4 by inhibitor pretreatment before VGN73: BC3 cells, Z-VAD-FMK 50 μM or bortezomib 25 nM 1 hour, then VGN73 18 μM 8 hours
T2 construct: endogenous in cells; host or cells: BC3, BCBL-1
T2 sequence (Q14839 whole entry): as above
Procedure: FIG. 3 Effect of VGN73 on CHD4 and LANA protein in tissue culture. FIG. 3. Amount of CHD4 and LANA protein expression was evaluated by IFA. BC3 cells were treated with VGN73 (18 μM) or mutant peptide (18 μM) for 24 hours. Then the cells were stained with the indicated antibodies. The scale is indicated in the panel. Cell volume. CHD4 and LANA signal intensity were compared. **; p<0.01, ***; p<0.001 versus the VGN73 group. FIG. 3b. Amount of CHD4 and LANA protein expression in total cell lysates was evaluated by western blotting. BC3 and BCBL-1 cells were treated with VGN73 at a concentration of IC50 or starved condition for 24 hours. The respective protein band was confirmed by immunoblotting with anti-CHD4 and anti-LANA antibody. FIG. 3c. Evaluating of caspase and proteasome in CHD4 cleavage by VGN73. BC3 cells were pretreated with pan-caspase inhibitor. Z-VAD-FMK (50 μM) or proteasome inhibitor, bortezomib (25 nM) for 1 hour, followed by treated with VGN73 (18 μM) for 8 hours. The respective protein band was confirmed by immunoblotting with anti-CHD4 antibody.
BC3 cells and BCBL-1 cells were treated with VGN73 at the concentration of IC50 for 24 hours. These cells were also treated with VGN73 in media without FBS. To evaluate the effect of VGN73 on CHD4 and LANA proteins in tissue culture, IFA and western blotting were carried out, and these gene expressions were evaluated by RT-qPCR. Moreover, BC3 cells were pretreated with pan-caspase inhibitor, Z-VAD-FMK (50 μM) or proteasome inhibitor, bortezomib (25 nM) for 1 hour, followed by treated with VGN73 (18 μM) for 8 hours. BC3 cells were pretreated with lysosome inhibitor, chloroquine (7.5 μM) for 1 hour, followed by treated with VGN73 (18 μM) for 24 hours. […]
To evaluate subcellular peptide localization, IFA was carried out (FIG. 2d). […] The exposure settings and image acquisition protocols were fixed in each imaging study to enable quantitative analysis. Mean LANA and CHD4 fluorescence (measured in arbitrary units, or A.U.) per cell was subsequently calculated using onboard software and/or NIH Image (FIG. 3a(b)). […]

| Molecule | binding to CHD4 by BLI (full-length Flag-CHD4) | rescue from VGN73 cell death by Z-VAD-FMK pretreatment (MTT) ([1]; BC3 and BCBL-1, Z-VAD-FMK 40 μM 1 hr, VGN73 18 or 13 μM) | recovery of full-length CHD4 by inhibitor pretreatment before VGN73 (CHD4) | cancer cell death in vitro tissue culture [1] | CHD4 cleavage (western blotting, total cell lysates) (CHD4; BC3 and BCBL-1 cells, IC50 concentration, 24 hours) |
| --- | --- | --- | --- | --- | --- |
| {d-Arg}KKRR{ORN]RRR{β-Ala} (RKKRRXRRRA; d-Arg, ornithine, beta-Ala non-natural residues; Description of sequence: modified TAT amino acid sequence; SITE 1 d-arginine; MOD_RES 6 ORN; MOD_RES 10 beta-alanine) | not mutant or TAT alone binds to CHD4 |  |  |  |  |
| COC(=O)C[C@H](NC(=O)[C@H](C)NC(=O)[C@@H](NC(=O)OCc1ccccc1)C(C)C)C(=O)CF [Z-VAD-FMK] (Cbz-Val-Ala-Asp(OMe)-CH2F) |  | partially rescued BC3 and BCBL-1 from cell death | recovered full-length CHD4 |  |  |
| {d-Arg}KKRR{ORN}RRR{β-Ala}AKHAVISAGNDPYGLKK ([dR]KKRR[Orn]RRR[βAla]AKHAVISAGNDPYGLKK) [mutant peptide, mutant peptide with three amino acid changes at conserved amino acids] | mutations eliminated the interaction |  |  | not mutant peptide | did not have such effects |
| CC(C)C[C@H](NC(=O)[C@H](Cc1ccccc1)NC(=O)c1cnccn1)B(O)O [proteasome inhibitor, bortezomib] |  |  | not a proteasome inhibitor |  |  |
